Assay results from patent publication US20090247555A1, “5,7-Disubstituted[1,3]Thiazolo[4,5-D]Pyrimidin-2(3H)-One Derivatives 258” (AstraZeneca AB, priority 2008, published 2009).

Legend:
[1] = tested on: human whole blood, adhesion to fractalkine; assay: Human whole blood flow adhesion assay; type: cell-based; conditions: heparinised human whole blood, adhesion to recombinant human fractalkine under flow, 15 min preincubation
Procedure: Flow adhesion assays were performed using a microfluidics system (Cellix Microfluidics SP1.0 platform) and 8-channel biochips (Cellix Vena 8 biochips). Channel 1 was used as control and channels 2 to 8 to evaluate seven different concentrations of antagonist. To 25 monitor adhesion to fractalkine, channels were first coated with 15 μl of anti-His Tag antibody at 25 μg/ml for 2 hours. Channels were then washed three times with 15 μl DPBS to remove unbound antibody. Subsequently, 15 μl of recombinant human fractalkine at 2.5 μg/ml was added to each channel and biochips were left at 4° C. overnight in a humidified atmosphere. The following day, channels were washed three times with 15 μl DPBS prior to blocking with 15 μl of BSA at 10 mg/ml for 30 minutes. Human whole blood was obtained by venipuncture using heparin as anti-coagulant. DMSO carrier or compounds in DMSO were added to 0.3 ml blood in 1.5 ml Eppendorf tubes followed by incubation at room temperature for 15 minutes. The Vena 8 biochip was placed on a microscope stage and channels were washed with RPMI 1640 medium containing 1% BSA in preparation for the assays. […] Adhered cells were subsequently quantified using DucoCell software (Cellix).

[2] = target: T1, CX3CR1 receptor (Homo sapiens, UniProt P49238); assay: Fractalkine (CX3CR1) GTPgS inhibition assay (96 well); type: biochemical; conditions: CX3CR1 CHO K1 membranes, inhibition of 35S-GTPγS signal generated by EC80 of fractalkine, triplicate
T1 construct: host or cells: CHO K1 cells; membranes prepared in-house
T1 sequence (P49238 1-355): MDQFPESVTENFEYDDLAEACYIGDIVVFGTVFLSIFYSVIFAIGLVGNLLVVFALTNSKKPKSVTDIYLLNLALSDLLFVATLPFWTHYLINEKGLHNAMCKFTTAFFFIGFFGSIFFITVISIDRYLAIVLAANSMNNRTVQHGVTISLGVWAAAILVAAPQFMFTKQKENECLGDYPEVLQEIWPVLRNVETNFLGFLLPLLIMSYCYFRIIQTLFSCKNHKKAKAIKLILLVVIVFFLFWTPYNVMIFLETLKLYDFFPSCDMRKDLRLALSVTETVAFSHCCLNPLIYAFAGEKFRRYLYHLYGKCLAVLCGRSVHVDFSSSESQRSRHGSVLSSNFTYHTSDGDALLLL
Procedure: The activation of the CX3CR1 receptor by fractalkine can be detected using a GTPγS assay. ^35S-labelled GTPγS is added to the reaction (together with compounds and CX3CR1 CHO K1 membranes) to bind to the G-protein in the membranes instead of GTP upon activation of the receptor. Since ^35S-labelled GTPγS is non-hydrolysable the receptor will stay in its active state. The bound ^35S-labelled GTPγS is separated from free by vacuum filtration onto 96 well filters. In inhibition assay mode the receptor in the membranes will be activated with the EC80 of fractalkine and further the CX3CR1 antagonists will inhibit the signal generated by the EC80 of fractalkine.
Ligand: Fractalkine, PeproTech, cat no 300-31, 1 mg, −20° C. Diluted in dH2O+0.05% BSA to a stock concentration of 0.1 mM, Stored in −20° C.
^35S-GTPγS, Perkin Elmer (NEN), Cat no NEG030H, Specific activity 1250 Ci/mmol, 1 mCi/ml, −20° C.
Membranes: membranes are prepared inhouse from CX3CR1 CHO K1 cells purchased from Euroscreen. Protein concentration: 5.7 mg/ml, −80° C.
• HEPES: Sigma H-3375, RT • MgCl2×6H2O: Merck, cat no 5833, RT • NaCl: Merck, cat no 6404, RT • GDP: −20° C., Sigma cat no G-7127, Diluted in dH2O to a stock concentration of 10 mM. • Stored in −20° C. • Gelatine type A: Sigma, cat no G2625, 1% stock in water (heating is necessary to dissolve gelatine) made fresh on the day of the experiment RT
• Tris: Tris-HCl: Sigma, cat no T1503, RT • Tris-base: Sigma, cat no T3283, RT • MgCl2×6H2O: Merck, cat no 5833, RT • NaCl: Merck, cat no 6404, RT • Assay plates: 96 well, Nunc, 269620 • Filter: Printed Filtermat B, Wallac • Scintillator sheets: MeltiLex B, PerkinElmer
Assay plates are prepared by CMT with 1 compound/plate. 2 μl compound with the highest concentration 3.3 mM diluted with a factor 3 in 10 steps. This gives a final assay concentration of 33 μM for the highest concentration.
100 μl membranes (5 μg/well) diluted in 2× assay buffer is added to the assay plate.
100 μl ^35S-GTPγS (final assay concentration: 0.00056 μCi/μl) diluted in dH2O with EC80 of fractalkine is then added. […]
The plate is read in a microbeta. […]

| IC50 [1] [nM] | IC50 [2] [nM] | Compound |
| --- | --- | --- |
| 2400 | 1000 | CC(C)CC(CO)Nc1nc(SC(C)c2ccccn2)nc2[nH]c(=O)sc12 (single isomer, unassigned; isomer 1) [Example 12] |
|  | 9200 | CC(C)CC(CO)Nc1nc(SC(C)c2ccccn2)nc2[nH]c(=O)sc12 (single isomer, unassigned; isomer 2) [Example 13] |
|  | 2600 | CC(C)C[C@H](CO)Nc1nc(SC(C)c2ccccn2)nc2[nH]c(=O)sc12 (stereo partly drawn) [Example 1, 7-[(R)-1-hydroxy-4-methylpentan-2-ylamino]-5-[1-(pyridin-2-yl)ethylthio]thiazolo[4,5-d]pyrimidin-2(3H)-one] |
